Experimental findings from patent US20230279482A1, “COMPOSITIONS, METHODS AND USES FOR QUANTIFYING TRANSCRIPTION AND BIOSENSING OF SMALL MOLECULES USING A NOVEL TYPE VI CRISPR-CAS ASSAY” (THE REGENTS OF THE UNIVERSITY OF COLORADO, A BODY CORPORATE, priority 2020, published 2023) are described below.

In this assay the test system is crcB fluoride riboswitch. Kind of assay: SPRINT assay with fluoride riboswitch. In kind it is biochemical, B. cereus. On the procedure:
SPRINT reactions. Pentauridine RNA oligonucleotides were labeled with carboxyfluorescein (FAM) or TEX 615 at the 5′-end and with Iowa Black FQ at the 3′-end. Fluorescence measurements were taken at wavelengths 490/525 nm (excitation/emission) when the FAM fluorophore was used. In reactions with flavin-containing ligands, TEX-labeled RNA oligos were used at the wavelengths 576/615 (excitation/emission). Fluorescence measurements were taken every 5 minutes.
For exemplary SPRINT assays, a master mix was first prepared and then mixed with the remaining reaction reagent components to yield a final reaction volume of 30 μL; fluorescent readings of the entire reaction volume were performed in Corning 384 Flat Bottom Black Polystyrol plates. This master mix (SPRINT buffer, 10×), for assays contemplated herein can include, but is not limited to: 700 mM Tris-HCl, pH 8.0, 700 mM NaCl, 1 mM EDTA, 140 mM β-mercaptoethanol, and 25 mM MgCl2. Aliquots of an exemplary 10× SPRINT buffer were stored at −20° C. and not allowed to undergo more than 10 freeze-thaw cycles.
The B. cereus crcB fluoride riboswitch is a regulatory switch that turns on expression of the fluoride efflux pump crcB via selectively binding fluoride over chloride. […] This may be explained in part by an observed inhibition of the assay at fluoride concentrations above 100 μM. […]

For `[F-].[Na+]` [fluoride, sodium fluoride], for the setting “FIG. 4C, read-out: T50 value”, the EC50 amounted to 11 ± 1 µM. For the same molecule, the “fluoride concentration at which inhibition of the assay is observed” value (one-batch SPRINT) is on record as “above 100 μM”.
